The values that follow come from ChEMBL document CHEMBL1150979, “DERIVATIVES OF 4-AMINO-PYRIDINE AS SELECTIVE THROMBIN INHIBITORS” (Bioorg Med Chem Lett, 1997).

One test concerns the target Plasminogen (Homo sapiens, UniProt P00747). The test is described as follows: Tested for the Inhibition of the catalytic activity of human plasmin at 25 degree C and pH 7.5.
The next test concerns the target T1, Serine protease 1 (Bos taurus, UniProt P00760).
T1 sequence (P00760 whole entry): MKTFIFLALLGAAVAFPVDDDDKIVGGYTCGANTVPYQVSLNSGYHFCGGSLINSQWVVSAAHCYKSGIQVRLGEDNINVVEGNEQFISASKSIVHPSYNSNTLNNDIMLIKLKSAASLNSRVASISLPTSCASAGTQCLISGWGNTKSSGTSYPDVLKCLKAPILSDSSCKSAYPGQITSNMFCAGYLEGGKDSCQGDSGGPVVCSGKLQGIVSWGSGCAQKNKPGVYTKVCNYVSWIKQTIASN
The test is described as follows: Tested for the Inhibition of the catalytic activity of bovine trypsin at 25 degree C and pH 7.5.

A further test deals with Prothrombin (Homo sapiens, UniProt P00734).

In general, Ki refers to the equilibrium dissociation constant of an inhibitor or competing ligand from its target.

Bounds are passed on as bounds.

Sequence of Plasminogen (P00747 97-580 limits assumed): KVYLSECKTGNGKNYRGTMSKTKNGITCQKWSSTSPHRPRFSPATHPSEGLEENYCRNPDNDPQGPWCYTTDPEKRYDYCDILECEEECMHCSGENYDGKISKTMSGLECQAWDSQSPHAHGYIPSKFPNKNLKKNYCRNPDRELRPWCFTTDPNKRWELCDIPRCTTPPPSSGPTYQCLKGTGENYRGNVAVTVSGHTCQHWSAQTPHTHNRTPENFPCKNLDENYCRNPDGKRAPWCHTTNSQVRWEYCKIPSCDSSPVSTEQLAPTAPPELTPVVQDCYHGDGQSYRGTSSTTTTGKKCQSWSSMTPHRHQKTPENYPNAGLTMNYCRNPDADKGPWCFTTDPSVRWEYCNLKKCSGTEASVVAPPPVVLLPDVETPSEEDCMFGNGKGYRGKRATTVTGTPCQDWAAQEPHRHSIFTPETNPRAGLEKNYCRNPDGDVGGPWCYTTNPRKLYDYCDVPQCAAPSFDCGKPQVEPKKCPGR
Sequence of Plasminogen (P00747 581-810 limits assumed): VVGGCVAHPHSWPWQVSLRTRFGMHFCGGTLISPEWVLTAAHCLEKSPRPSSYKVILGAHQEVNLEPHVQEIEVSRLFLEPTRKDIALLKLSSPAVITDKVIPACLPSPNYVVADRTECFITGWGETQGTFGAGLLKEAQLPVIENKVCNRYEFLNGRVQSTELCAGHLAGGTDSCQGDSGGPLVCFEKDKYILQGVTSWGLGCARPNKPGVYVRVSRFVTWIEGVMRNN
Description for Prothrombin: Tested for the Inhibition of the catalytic activity of human Thrombin at 25 degree C and pH 7.5.

As for `O=S(=O)(Nc1cccc(OCCNc2ccncc2)c1)c1ccccc1`, the Ki was > 500 µM on Plasminogen, > 500 µM at Serine protease 1 and 0.3 µM on Prothrombin.
Turning to `CN(c1cccc(OCCNc2ccncc2)c1)S(=O)(=O)c1ccccc1`, the Ki was > 500 µM on Plasminogen, > 500 µM at Serine protease 1 and 0.07 µM on Prothrombin.
Turning to `O=S(=O)(Nc1cccc(OCCNc2ccncc2)c1)c1ccc2ccccc2c1`, the Ki at Plasminogen was > 500 µM; on Serine protease 1 it was > 500 µM; on Prothrombin, 7 µM.
As to `Cc1cccc(OCCNc2ccncc2)c1`, the values for the Ki on Plasminogen, on Serine protease 1 and on Prothrombin were > 500 µM, > 500 µM and 30 µM, respectively.
On to `O=C(CNS(=O)(=O)c1ccccc1)N[C@H](CCNc1ccncc1)C(=O)N1CCCCC1`, for which the Ki at Plasminogen is > 500 µM; on Serine protease 1, > 500 µM; on Prothrombin it was 10 µM.
For `OCCNc1ccncc1`, the Ki at Plasminogen, on Serine protease 1 and at Prothrombin was > 500 µM each time.
Consider `O=C(CNS(=O)(=O)c1ccc2ccccc2c1)N[C@@H](CCNc1ccncc1)C(=O)N1CCCCC1`, for which the Ki on Plasminogen was > 500 µM; at Serine protease 1, > 500 µM; at Prothrombin it was 300 µM.
Take `O=C(CNS(=O)(=O)c1ccc(Cl)cc1)N[C@H](CCNc1ccncc1)C(=O)N1CCCCC1`: the Ki at Plasminogen was > 500 µM; on Serine protease 1, > 500 µM; at Prothrombin, 2 µM.
As for `O=C(CNS(=O)(=O)c1ccc2ccccc2c1)N[C@H](CCNc1ccncc1)C(=O)N1CCCCC1`, the Ki at Plasminogen was > 500 µM; at Serine protease 1, > 500 µM; at Prothrombin, 0.2 µM.
With `Nc1ccncc1` [DALFAMPRIDINE], the Ki at Plasminogen, on Serine protease 1 and on Prothrombin was > 2000 µM in each case.
Take `N=C(N)c1ccc(COc2cccc(CCNS(=O)(=O)c3ccc(Cl)cc3)c2)cc1`: the Ki on Plasminogen was 34 µM; on Serine protease 1 it was 1.7 µM; at Prothrombin, 1.5 µM.
As to `O=S(=O)(Nc1cccc(OCCNc2ccncc2)c1)c1ccc(Cl)cc1`, the results for the Ki on Plasminogen, on Serine protease 1 and at Prothrombin were > 500 µM, > 500 µM and 0.7 µM, respectively.
Regarding `O=S(=O)(NCCc1cccc(OCCNc2ccncc2)c1)c1ccc(Cl)cc1`, the Ki at Plasminogen is > 500 µM; at Serine protease 1 it was > 500 µM; on Prothrombin, 2.8 µM.
For `c1ccc(OCCNc2ccncc2)cc1`, the Ki at Plasminogen is > 500 µM; on Serine protease 1 it was > 500 µM; at Prothrombin, 120 µM.
